The test system of the experiment is Adult rat DRG neurons. Briefly: Measurement of gene expression in adult DRG neurons by real-time PCR. Type of experiment: cell-based. The procedure:
Dorsal root ganglia were dissected from adult (3-6 months old) Sprague-Dawley rats, and dissociated and cultured by standard techniques (Lindsay, 1988). Briefly, ganglia were stripped of their sheaths, and incubated in 0.125% collagenase type IV (Worthington) in Ham's F12 with 10% HIHS for two 90 minute periods at 37° C. They were then washed extensively and incubated in 0.25% trypsin (Worthington) in HBSS at 37 degrees for 30 minutes. After inactivation of trypsin with 10% heat inactivated horse serum and further washing, the ganglia were dissociated by gentle trituration through a flame polished Pasteur pipet.
Neurons were plated on polyornithine and laminin coated 96-well plates in defined serum free medium consisting of Hams F-14 nutrient mixture with plus 2 mM glutamine, 0.35% bovine serum albumin (Albumax II, Gibco-BRL or Pathocyte-5, ICN), 60 ng/ml progesterone, 16 ug/ml putrescine, 400 ng/ml L-thyroxine, 38 ng/ml sodium selenite, 340 ng/ml tri-iodo-thyronine, 60 ug/ml penicillin and 100 ug/ml streptomycin (Sigma) (Davies et al., 1993). NGF (10 ng/ml) and test compounds were added to the wells shortly before or after plating as described below.
Adult rat DRG neurons were plated in 96 well plates, exposed to different concentrations of NGF for 120 hours and specific mRNA expression was analysed using the Stratagene Mx4000 real time PCR instrument. These conditions allow detection of greater than 15-fold increase in substance P mRNA content relative to GAPDH mRNA at the highest concentration of NGF used (FIG. 1). In addition, it was shown that a greater than 3-fold reduction in galanin mRNA level relative to GAPDH mRNA at the highest concentration of NGF can be measured (FIG. 1).
After culture as described above for 5 days RNA was extracted and the ratio of substance P mRNA expression determined relative to GAPDH mRNA for RNA from each of the culture wells by RT-PCR. RT-PCR was also performed to determine the ratio of galanin to GAPDH mRNA for each RNA sample. […]
Background: In qPCR the cycle at which signal appears reflects the starting amount.

For “NGF: nerve growth factor, the first neurotrophin identified; acts through TrkA and p75 receptors”, the “reduction in galanin mRNA level relative to GAPDH mRNA” value (highest concentration of NGF (range up to 50 ng/ml), 120 hours exposure, relative to cultures with no added NGF (FIG. 1)) was “greater than 3 fold”. The “increase in substance P mRNA content relative to GAPDH mRNA” value (highest concentration of NGF used (range up to 50 ng/ml), 120 hours exposure, 96 well plates, relative to cultures with no added NGF (FIG. 1)) is “greater than 15 fold”. Further, the “combined difference in gene expression (substance P and galanin combined in a single assay) in the absence or presence of NGF” value (substance P mRNA relative to galanin mRNA, 120 hours exposure (FIG. 1)) is “approximately 50 fold”.

The record behind these values is patent US20060147932A1, “Methods of screening for modulators of nerve growth factor” (priority 2003, published 2006).
